Measurements: patent publication US20260034130A1 (priority 2022, published 2026)

Test system: patients with acute ischemic stroke or high-risk TIA
Assay: AXIOMATIC-SSP NIHSS at the time of first recurrent stroke
Format: in vivo, human
Details: for NIHSS Change from Baseline Mean / NIHSS Change from Baseline Median / NIHSS Value Mean / NIHSS Value Median: first recurrent stroke
From the text: National Institutes of Health Stroke Scale (NIHSS), Modified Rankin Scale (mRS), Montreal Cognitive Assessment (MoCA), and Digit Symbol Substitution Test (subtest of WAIS-IV) were collected at baseline (at randomization for NIHSS), on Days 21 and 90, and at the time of a new stroke event. MoCA and DSST (subset of WAIS-IV) were read by a third-party central laboratory blinded to treatment.
Descriptive statistics and corresponding change from baseline (where applicable) assessed by the National Institutes of Health Stroke Score (NIHSS), modified Rankin Scale (mRS), Montreal Cognitive Assessment (MoCA), and Digit Symbol Substitution Test (subtest of WAIS-IV) were summarized by treatment group.

Q: What does the source list for `C[C@@H]1CCC[C@H](n2cnc(-c3cc(Cl)ccc3-n3cc(Cl)nn3)cc2=O)c2cc(ccn2)-c2c(cnn2C(F)F)NC1=O` [milvexian, (5R,9S)-9-(4-(5-chloro-2-(4-chloro-1H-1,2,3-triazol-1-yl)phenyl)-6-oxopyrimidin-1(6H)-yl)-21-(difluoromethyl)-5-methyl-21H-3-aza-1(4,2)-pyridina-2(5,4)-pyrazolacyclonaphan-4-one]?
A: NIHSS Change from Baseline Mean (25 BID, N 11): 2.6; NIHSS Change from Baseline Median (25 BID, N 11): 3.0; NIHSS Value Mean (25 BID, N 11): 5.4; NIHSS Value Median (25 BID, N 11): 5.0; NIHSS Change from Baseline Mean (25 QD, N 14): 2.6; NIHSS Change from Baseline Median (25 QD, N 14): 2.0; NIHSS Value Mean (25 QD, N 14): 4.6; NIHSS Value Median (25 QD, N 14): 3.5; NIHSS Change from Baseline Mean (50 BID, N 11): 1.6; NIHSS Change from Baseline Median (50 BID, N 11): 1.0; NIHSS Value Mean (50 BID, N 11): 4.6; NIHSS Value Median (50 BID, N 11): 3.0; NIHSS Change from Baseline Mean (100 BID, N 10): 5.2; NIHSS Change from Baseline Median (100 BID, N 10): 2.5; NIHSS Value Mean (100 BID, N 10): 7.1; NIHSS Value Median (100 BID, N 10): 6.5; NIHSS Change from Baseline Mean (200 BID, N 20): 2.8; NIHSS Change from Baseline Median (200 BID, N 20): 1.0; NIHSS Value Mean (200 BID, N 20): 4.4; NIHSS Value Median (200 BID, N 20): 2.5; NIHSS score at the time of a new stroke event compared with placebo (milvexian arms): numerically lower
